Among the test systems are COLO 205 colon; HOP-62 NSCLC; LOX IMVI melanoma; M14 melanoma; NCI/ADR-RES ovarian; OVCAR-4 ovarian; OVCAR-5 ovarian; SK-OV-3 ovarian; TK-10 renal; SK-MEL-5 melanoma.
Common to all, as to assay: inhibition of tumour cell growth, NCI panel, 48 h

The structures appear in SMILES notation.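 Assay format: 96-well plates, 48-hour exposure. GI50 is the concentration that inhibits growth by half. Definition used: TGI = concentration required for complete inhibition of growth.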

Turning to `COc1ccccc1NCC(=O)Nn1c(C)nc2ccc(S(=O)(=O)Nc3ccccc3OC)cc2c1=O`, the TGI with COLO 205 colon, with HOP-62 NSCLC, in the experiment with LOX IMVI melanoma, with M14 melanoma, with NCI/ADR-RES ovarian and in the experiment with OVCAR-4 ovarian was above 100 µM in each case. For the same molecule, the TGI with OVCAR-5 ovarian, in the experiment on SK-OV-3 ovarian and in the experiment with TK-10 renal was above 100 µM throughout.
Regarding `COC(=O)[C@H](CCSC)NC(=O)c1ccc(CNC(=O)/C(C)=C/c2ccccc2)cc1`, the TGI was above 100 µM in the experiment on COLO 205 colon; 52.3 µM in the experiment on HOP-62 NSCLC; above 100 µM in the experiment on LOX IMVI melanoma; 83.7 µM with M14 melanoma; 68.5 µM with NCI/ADR-RES ovarian; above 100 µM in the experiment on OVCAR-4 ovarian. Further, the TGI with OVCAR-5 ovarian, in the experiment with SK-MEL-5 melanoma, with SK-OV-3 ovarian and with TK-10 renal was above 100 µM in each case.
As to `CN(C)CCNc1nc2c(no[n+]2[O-])c2ccccc12`, the TGI came to 66.7 µM in the experiment with COLO 205 colon; 34.9 µM in the experiment on HOP-62 NSCLC; 35.1 µM in the experiment with LOX IMVI melanoma; 30.3 µM in the experiment with M14 melanoma; 58.7 µM with NCI/ADR-RES ovarian; 61.1 µM in the experiment with OVCAR-4 ovarian. For the same molecule, the TGI in the experiment with OVCAR-5 ovarian was above 100 µM; in the experiment on SK-MEL-5 melanoma it was 28.4 µM; in the experiment on SK-OV-3 ovarian, 98.8 µM; in the experiment with TK-10 renal, 63.1 µM.
With `COc1ccc(N2C(=O)C3CC4=CC(=O)C[C@H]4[C@H]32)cc1` (some centres undefined), the TGI in the experiment on COLO 205 colon, in the experiment on HOP-62 NSCLC, in the experiment with LOX IMVI melanoma, in the experiment on M14 melanoma, in the experiment with NCI/ADR-RES ovarian and in the experiment on OVCAR-4 ovarian was above 100 µM each time. The TGI in the experiment with OVCAR-5 ovarian, in the experiment with SK-OV-3 ovarian and in the experiment on TK-10 renal was above 100 µM each time.
`CCN(CC)CCC(=O)c1ccc(Oc2ccc(F)cc2)cc1`: the TGI in the experiment with COLO 205 colon was 33.7 µM; in the experiment on HOP-62 NSCLC it was 56.6 µM; in the experiment on LOX IMVI melanoma it was 28.8 µM; in the experiment on M14 melanoma, 34.9 µM; in the experiment with NCI/ADR-RES ovarian, 83.4 µM; with OVCAR-4 ovarian it was above 100 µM. The TGI is 35 µM in the experiment with OVCAR-5 ovarian, above 100 µM in the experiment on SK-OV-3 ovarian and 31.7 µM in the experiment on TK-10 renal.
Take `COc1ccc2[nH]c(O)c(/C=c3/cc4c(c(-c5ccc(F)cc5)n3)=Nc3ccccc3-4)c2c1`: the GI50 with HOP-62 NSCLC is 1.88 µM; in the experiment on LOX IMVI melanoma, 1.64 µM; in the experiment on M14 melanoma it was 1.98 µM; with NCI/ADR-RES ovarian, 2 µM; in the experiment with OVCAR-4 ovarian it was 1.8 µM; with OVCAR-5 ovarian, 13.8 µM. Further, the GI50 is 3.47 µM in the experiment on SK-MEL-5 melanoma, 17.2 µM in the experiment with SK-OV-3 ovarian and 2.71 µM with TK-10 renal. Moreover, the TGI was determined as 3.69 µM in the experiment on HOP-62 NSCLC; 3.2 µM in the experiment on LOX IMVI melanoma; 3.85 µM with M14 melanoma; 5.63 µM in the experiment on NCI/ADR-RES ovarian; 4.12 µM in the experiment with OVCAR-4 ovarian; 35.6 µM in the experiment on OVCAR-5 ovarian. Also, the values for the TGI with SK-MEL-5 melanoma, with SK-OV-3 ovarian and in the experiment on TK-10 renal were 15.8 µM, 33.8 µM and 5.32 µM, respectively.
Consider `COC(=O)C(Cc1nc2ccccc2[nH]c1=O)C(=O)C(=O)Nc1cc(C(F)(F)F)ccc1Cl` (centres undefined), for which the TGI stood at 35.1 µM in the experiment on HOP-62 NSCLC; 31.5 µM with LOX IMVI melanoma; 30.9 µM in the experiment on M14 melanoma; 53.3 µM with NCI/ADR-RES ovarian; 27.9 µM with OVCAR-4 ovarian; 33.5 µM with OVCAR-5 ovarian. Moreover, the TGI is 56 µM in the experiment on SK-MEL-5 melanoma, above 100 µM in the experiment with SK-OV-3 ovarian and 44 µM in the experiment on TK-10 renal.
`CC1(C)CC[C@]2(C(=O)O)[C@H](O)C[C@]3(C)C(=CC[C@@H]4[C@@]5(C)CC[C@H](OC6OC(C(=O)O)C(O)C(O)C6O)C(C)(C)[C@@H]5CC[C@]43C)[C@@H]2C1` (some centres undefined): the TGI was above 100 µM with COLO 205 colon; above 100 µM in the experiment with HOP-62 NSCLC; above 100 µM with LOX IMVI melanoma; above 100 µM in the experiment on M14 melanoma; above 100 µM in the experiment with NCI/ADR-RES ovarian; 58.4 µM in the experiment with OVCAR-4 ovarian. Further, the TGI in the experiment on OVCAR-5 ovarian, with SK-MEL-5 melanoma and with SK-OV-3 ovarian was above 100 µM in each case.
`COc1ccccc1NS(=O)(=O)c1ccc2ncn(NS(=O)(=O)c3ccc(Cl)cc3)c(=O)c2c1`: the TGI in the experiment with COLO 205 colon, in the experiment with HOP-62 NSCLC, in the experiment with LOX IMVI melanoma, in the experiment on M14 melanoma, with NCI/ADR-RES ovarian and in the experiment on OVCAR-4 ovarian was above 100 µM throughout. Moreover, the TGI in the experiment on OVCAR-5 ovarian, in the experiment on SK-OV-3 ovarian and with TK-10 renal was above 100 µM each time.
With `N=C(c1cccs1)C1(N2CCCCC2)CCCCC1`, the TGI is 47.8 µM in the experiment on HOP-62 NSCLC; 47.9 µM with LOX IMVI melanoma; 47.4 µM in the experiment on M14 melanoma; 44.7 µM in the experiment with NCI/ADR-RES ovarian; 54.9 µM in the experiment on OVCAR-4 ovarian; 34.6 µM with OVCAR-5 ovarian. The figures for the TGI in the experiment on SK-OV-3 ovarian and in the experiment with TK-10 renal were 46.8 µM and 35.7 µM, respectively.
On to `CC1=CC(=O)/C(=C/n2c(=S)[nH]c3ccccc32)C(=O)O1`, for which the TGI in the experiment on COLO 205 colon, in the experiment with HOP-62 NSCLC, with LOX IMVI melanoma, with M14 melanoma, in the experiment with NCI/ADR-RES ovarian and with OVCAR-4 ovarian was above 100 µM in each case. The TGI with OVCAR-5 ovarian, in the experiment with SK-OV-3 ovarian and in the experiment on TK-10 renal was above 100 µM throughout.

These data come from PubChem BioAssay (NCI).
